From patent publication US10227347B2, “Purinyl-N-hydroxyl pyrimidine formamide derivative, preparation methods and uses thereof” (Guizhou Bailing Group Pharmaceutical CO., LTD., priority 2015, dated 2019)
Like-named read-outs stand apart in the source and are kept apart here.

What was measured:
HDAC1 = target: T1, HDAC1 (Homo sapiens, UniProt Q13547); experiment: In vitro HDAC1 enzymatic activity inhibition (Lys-Ac-AMC substrate); assay type: biochemical
T1 construct: purchased BPS Bioscience
Method: Determining the inhibition capability to HDAC activity through the substrate method of fluorophore 4-amino-7-coumarin coupled Ac-peptide (Lys-Ac-AMC). HDAC1 protein is purchased from BPS Bioscience Company; the reaction buffer system is a modified tris(hydroxymethyl)aminomethane (TRIS) buffer (pH7.0). All small molecule compounds are prepared and dissolved by 100% DMSO (dimethyl sulfoxide). HDAC is prepared into the buffer as per certain concentration to be served as the enzyme solution; trypsin and the fluorophore 4-amino-7-coumarin coupled Ac-peptide substrate are prepared into the buffer as per certain concentration to be served as the substrate solution. Adding the compound into the reaction wells of the 384 well plate at the designed concentration, then adding 15 μL HDAC solution into the reaction wells (adding 15 μL blank buffer into the control well 0) for incubation under ambient temperature for 15 min; then adding 10 μL substrate solution to start reaction; during the reaction, the final concentration of HDAC1 protein is 6 nM, trypsin 0.05 μM and Ac-peptide 8 μM.
(§1) Calculating the value of IC50 as per the formula: Y=background data+(top data−background data)/(1+10^((Log IC50−X)*rate of curve))
Where, Y refers to the inhibition ratio (%) and X refers to the compound concentration. […]
Analyzing the result data with the software GraphPad Prism and calculating the value of IC50 as per the formula: Y=background data+(top data−background data)/(1+10^((Log IC50−X)*rate of curve)). Where, Y refers to the inhibition ratio (%) and X refers to the compound concentration.

PI3Kα = target: T2, PI3Kα (Homo sapiens, UniProt P42336); experiment: PI3Kα activity inhibition (Kinase-Glo); assay type: biochemical; conditions: Table 1, graded; read-out: PI3Kα IC50
T2 construct: purchased Invitrogen PV4788
T2 sequence (P42336 whole entry, species assumed): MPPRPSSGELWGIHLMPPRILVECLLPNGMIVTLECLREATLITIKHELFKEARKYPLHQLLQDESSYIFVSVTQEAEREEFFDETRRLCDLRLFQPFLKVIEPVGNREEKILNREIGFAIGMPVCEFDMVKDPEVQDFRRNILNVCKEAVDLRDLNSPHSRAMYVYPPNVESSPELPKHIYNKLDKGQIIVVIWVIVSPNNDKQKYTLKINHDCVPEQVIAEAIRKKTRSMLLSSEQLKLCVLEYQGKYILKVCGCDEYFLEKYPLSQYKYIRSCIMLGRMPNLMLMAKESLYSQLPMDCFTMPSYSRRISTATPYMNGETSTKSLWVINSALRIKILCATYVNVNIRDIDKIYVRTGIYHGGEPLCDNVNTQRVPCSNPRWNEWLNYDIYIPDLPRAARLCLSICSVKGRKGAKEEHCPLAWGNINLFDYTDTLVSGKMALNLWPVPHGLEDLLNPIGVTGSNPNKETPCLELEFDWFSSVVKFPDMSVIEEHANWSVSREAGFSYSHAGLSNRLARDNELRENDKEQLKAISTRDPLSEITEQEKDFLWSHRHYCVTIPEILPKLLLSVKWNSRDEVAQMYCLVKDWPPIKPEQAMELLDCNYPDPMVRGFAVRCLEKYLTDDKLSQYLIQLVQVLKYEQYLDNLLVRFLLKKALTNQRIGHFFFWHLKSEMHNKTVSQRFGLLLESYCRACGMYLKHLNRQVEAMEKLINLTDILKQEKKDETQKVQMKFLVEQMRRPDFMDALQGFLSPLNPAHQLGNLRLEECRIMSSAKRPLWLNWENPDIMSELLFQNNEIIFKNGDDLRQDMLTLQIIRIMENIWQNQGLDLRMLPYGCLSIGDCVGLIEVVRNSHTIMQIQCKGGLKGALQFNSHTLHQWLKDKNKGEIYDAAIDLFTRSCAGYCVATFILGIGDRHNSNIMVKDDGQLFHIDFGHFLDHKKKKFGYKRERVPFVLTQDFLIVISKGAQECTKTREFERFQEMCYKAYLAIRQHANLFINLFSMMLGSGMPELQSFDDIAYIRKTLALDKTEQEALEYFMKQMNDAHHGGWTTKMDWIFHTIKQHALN
T2 sequence (P27986 whole entry partner, species assumed): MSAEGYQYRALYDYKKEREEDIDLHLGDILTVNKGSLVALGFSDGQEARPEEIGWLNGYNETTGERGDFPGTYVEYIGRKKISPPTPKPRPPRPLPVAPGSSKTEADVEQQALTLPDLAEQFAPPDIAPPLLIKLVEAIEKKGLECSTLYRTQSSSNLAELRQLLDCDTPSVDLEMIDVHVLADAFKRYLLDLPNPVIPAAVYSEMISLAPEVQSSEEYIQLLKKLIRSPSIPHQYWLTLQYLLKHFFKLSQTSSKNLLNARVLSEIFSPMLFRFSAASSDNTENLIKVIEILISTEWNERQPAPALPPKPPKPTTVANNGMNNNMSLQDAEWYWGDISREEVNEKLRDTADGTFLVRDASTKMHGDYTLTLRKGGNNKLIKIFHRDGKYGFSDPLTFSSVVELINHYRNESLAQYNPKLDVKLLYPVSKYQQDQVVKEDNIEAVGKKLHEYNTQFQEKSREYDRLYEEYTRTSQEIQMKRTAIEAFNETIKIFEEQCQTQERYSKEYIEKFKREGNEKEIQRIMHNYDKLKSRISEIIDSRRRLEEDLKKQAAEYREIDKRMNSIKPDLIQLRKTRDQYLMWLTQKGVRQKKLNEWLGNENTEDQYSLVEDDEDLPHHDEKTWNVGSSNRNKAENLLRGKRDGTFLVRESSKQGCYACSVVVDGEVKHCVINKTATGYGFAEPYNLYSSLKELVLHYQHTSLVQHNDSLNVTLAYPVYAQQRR
Method: Detecting the inhibition capability of the compound to PI3Kα and PI3Kδ activities with Kinase-Glo (purchased from Promege Company; Catalog No.: V3771). […] The reaction system also comprises substrates as PIP2 (4, 5-diphosphoinositide, purchased from Life Technologies Company) and ATP (triphosadenine, purchased from Sigma Company). The reaction buffer system comprises 50 mM HEPES (4-hydroxyethylpiperazine ethane sulfonic acid), 3 mM MgCl2, 1 mM EGTA (ethylene glycol bis(2-amino ethylether)quadrol), 100 mM NaCl, 0.03% CHAPS (3-[3-(cholamidopropyl)dimethylamino]-1-propanesulfonic acid), 2 mM DTT (dithiothreitol). The pH value of the reaction buffer is 7.5. […] Mixing the system evenly for incubation under ambient temperature (for 1 h in PI3Kα test and for 2 h in PI3Kδ test). After incubation, adding 10 μL Kinase-Glo which has been preheated to ambient temperature into each reaction well to terminate the reaction; shaking it in dark place for 15 min after it is mixed evenly, then measuring the fluorescence intensity with a microplate reader and analyzing the result data with the software GraphPad Prism.
as §1
Where, Y refers to the inhibition ratio (%) and X refers to the compound concentration.

[1] = Table 1, graded, read-out: HDAC1 IC50

T1 sequence (Q13547 whole entry, species assumed): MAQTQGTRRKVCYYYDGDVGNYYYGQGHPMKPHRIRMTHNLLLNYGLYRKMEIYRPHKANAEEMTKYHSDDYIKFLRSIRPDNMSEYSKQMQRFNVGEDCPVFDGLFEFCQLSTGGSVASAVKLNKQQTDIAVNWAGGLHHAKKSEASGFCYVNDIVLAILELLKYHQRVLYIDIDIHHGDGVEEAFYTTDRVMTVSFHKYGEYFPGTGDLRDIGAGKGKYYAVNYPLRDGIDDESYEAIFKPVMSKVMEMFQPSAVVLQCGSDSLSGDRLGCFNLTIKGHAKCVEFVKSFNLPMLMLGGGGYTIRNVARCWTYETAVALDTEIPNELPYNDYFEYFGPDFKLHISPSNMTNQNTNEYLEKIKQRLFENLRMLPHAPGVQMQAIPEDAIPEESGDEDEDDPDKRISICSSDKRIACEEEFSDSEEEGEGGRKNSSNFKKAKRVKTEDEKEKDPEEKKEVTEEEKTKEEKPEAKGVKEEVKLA

Row | SMILES | IC50 (HDAC1; [1]) [µM] | IC50 (HDAC1; read-out: inhibition value IC50 to the activity of HDAC1) [µM] | IC50 (PI3Kα) [µM]
1 | CN(Cc1nc2c(N3CCOCC3)nc(-c3ccc(CN4CCOCC4)cc3)nc2n1C)c1ncc(C(=O)NO)cn1 [CLJ-67] | < 0.001 | < 0.001 | > 10
2 | CN(Cc1nc2c(N3CCOCC3)nc(-c3ccc(S(=O)(=O)NCCCCl)cc3)nc2n1C)c1ncc(C(=O)NO)cn1 [CLJ-58, 2-(((2-(4-(N-(3-chloropropyl)sulfonamide)phenyl)-9-methyl-6-morpholine-9H-purine-8-yl))methyl(methyl)amino)-N-hydroxyl pyrimidine-5-formamide] | < 0.1 |  | > 10
3 | COc1ccc(-c2nc(N3CCN(CCO)CC3)c3nc(CN(C)c4ncc(C(=O)NO)cn4)n(C)c3n2)cc1 [CLJ-70, N-hydroxy-2-(((2-(4-methoxyphenyl)-9-methyl-6-(4-(2-hydroxyethylpiperazine)-1-yl)-9H-purine-8-yl)methyl)(methyl)amino)pyrimidine-5-formamide] | < 0.1 |  | > 10
4 | CN(Cc1nc2c(N3CCOCC3)nc(-c3cccc(S(=O)(=O)NCO)c3)nc2n1C)c1ncc(C(=O)NO)cn1 [CLJ-59, 2-(((2-(3-(N-(hydroxymethyl)sulfonamide)phenyl)-9-methyl-6-morpholine-9H-purine-8-yl))methyl(methyl)amino)-N-hydroxyl pyrimidine-5-formamide] | < 0.1 |  | > 10
5 | CN(Cc1nc2c(N3CCOCC3)nc(-c3cccc(C(=O)NCCO)c3)nc2n1C)c1ncc(C(=O)NO)cn1 [CLJ-65, 2-(((2-(3-(N-(hydroxyethyl)acylamino)phenyl)-9-methyl-6-morpholine-9H-purine-8-yl))methyl(methyl)amino)-N-hydroxyl pyrimidine-5-formamide] | < 0.1 |  | > 10
6 | CC(C)COc1ccc(-c2nc(N3CCOCC3)c3nc(CN(C)c4ncc(C(=O)NO)cn4)n(C)c3n2)cc1 [CLJ-43, 2-(((2-(4-isobutoxyphenyl)-9-methyl-6-morpholine-9H-purine-8-yl))methyl(methyl)amino)-N-hydroxyl pyrimidine-5-formamide] | < 0.1 |  | > 10
7 | COc1ccc(-c2nc(N3CCNCC3)c3nc(CN(C)c4ncc(C(=O)NO)cn4)n(C)c3n2)cc1 [CLJ-69, N-hydroxy-2-(((2-(4-methoxyphenyl)-9-methyl-6-(piperazine-1-yl)-9H-purine-8-yl)methyl)(methyl)amino)pyrimidine-5-formamide] | < 0.1 |  | > 10
8 | CN(Cc1nc2c(N3CCOCC3)nc(-c3ccc(O)cc3)nc2n1C)c1ncc(C(=O)NO)cn1 [CLJ-28, 2-(((2-(4-hydroxyphenyl)-9-methyl-6-morpholine-9H-purine-8-yl))methyl(methyl)amino)-N-hydroxyl pyrimidine-5-formamide] | 0.1 to 1 |  | > 10
9 | CCCn1c(CN(C)c2ncc(C(=O)NO)cn2)nc2c(N3CCOCC3)nc(-c3ccc(N)cc3)nc21 [CLJ-45, N-hydroxy-2-(((2-(4-aminophenyl)-6-morpholino-9-propyl-9H-purine-8-yl)methyl)(methyl)amino)pyrimidine-5-formamide] | 1 to 10 |  | > 10
10 | CCc1ccc(-c2nc(N3CCOCC3)c3nc(CN(C)c4ncc(C(=O)NO)cn4)n(C)c3n2)cc1 [CLJ-61, 2-(((2-(4-ethylphenyl)-9-methyl-6-morpholine-9H-purine-8-yl))methyl(methyl)amino)-N-hydroxyl pyrimidine-5-formamide] | < 0.1 |  | > 10
11 | CN(Cc1nc2c(N3CCOCC3)nc(-c3ccc(C(C)(C)C)cc3)nc2n1C)c1ncc(C(=O)NO)cn1 [CLJ-63] | < 0.1 |  | > 10
12 | CN(Cc1nc2c(N3CCOCC3)nc(-c3cccc(OCCO)c3)nc2n1C)c1ncc(C(=O)NO)cn1 [CLJ-41, 2-(((2-(3-(2-hydroxylethyoxyl)phenyl)-9-methyl-6-morpholine-9H-purine-8-yl))methyl(methyl)amino)-N-hydroxyl pyrimidine-5-formamide] | 0.1 to 1 |  | 0.1 to 1
